Reference: patent US20240140931A1, “TRICYCLIC COMPOUNDS AND USES THEREOF” (HUTCHMED LIMITED, priority 2021, published 2024)
pIC50: −log10 of the molar value.

Experiments:
[1] = test system: pERK1/2 (Thr202/Tyr204) in Miapaca2 cells; assay: Assay of intracellular pERK1/2 (Thr202/Tyr204) phosphorylation; assay type: cell-based; settings: pERK1/2 (Thr202/Tyr204) HTRF
In short: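 HTRF read-out (665/615 nm) of phospho-ERK1/2 Thr202/Tyr204 in lysates from Miapaca2 cells exposed for 2 h to 3-fold compound dilutions at 0.5% final DMSO. Controls: lysis buffer without cells and DMSO-treated cells; IC50 from four-parameter logistic fit.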

[2] = molecular target: Human full-length SHP2 recombinant protein (Homo sapiens (Human), UniProt Q06124); assay: Assay of full-length SHP2 phosphatase activity; assay type: biochemical; settings: DiFMUP substrate, with activating peptide
In short: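 Readout: DiFMUP hydrolysis fluorescence (355/460 nm) after 60 min at 25 °C, following 30 min RT preincubation of compound with peptide-activated full-length human SHP2. Controls were 1% DMSO with or without enzyme; IC50 by four-parameter logistic fit.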

pIC50 ([1]; Homo sapiens, MIA PaCa-2, 2 h)	pIC50 [2]	pIC50 ([1]; 2 hours)	SMILES
< 6.00	6.01		CN(C)CC#Cc1ccc2c(c1)C(=O)C1(CCN(c3ncc(Sc4ccnc(N)c4Cl)c4nccn34)CC1)C2 [Compound 72]
6.29	6.89		C#Cc1ccc2c(c1)[C@@H](N)C1(CCN(c3cc(=O)n(-c4c(F)cccc4Cl)c(C)n3)CC1)C2 [Compound 68]
	7.77	7.10	C#Cc1ccc2c(c1)[C@@H](N)C1(CCN(c3nc(C)n(-c4ccc(F)cc4Cl)c(=O)c3C)CC1)C2 (atropisomer, axis not shown) [Compound 103]
6.19	7.02		C#Cc1ccc2c(c1)[C@@H](N)C1(CCN(c3cc(=O)n(-c4ccc(OCC)c(Cl)c4)c(C)n3)CC1)C2 [Compound 46]
	6.75	6.16	C#Cc1ccc2c(c1)[C@@H](N)C1(CCN(c3cc(=O)n(-c4cccc(C(F)(F)F)c4Cl)c(C)n3)CC1)C2 (atropisomer, axis not shown) [Compound 119]
7.70	8.52		COCCSc1ccc2c(c1)[C@@H](N)C1(CCN(c3ncc(Sc4ccnc(N)n4)c4nccn34)CC1)C2 [Compound 98]
	7.60	6.29	CNC(=O)C#Cc1ccc2c(c1)[C@@H](N)C1(CCN(c3cc(=O)n(-c4ccc(F)c(OC)c4Cl)c(C)n3)CC1)C2 (atropisomer, axis not shown) [Compound 200]
6.11	7.30		Cc1nc(N2CCC3(CC2)Cc2ccc(C#CCO)cc2[C@H]3N)cc(=O)n1-c1cc(Cl)ccc1Cl [Compound 85]
9.00	9.30		C#Cc1ccc2c(c1)[C@@H](N)C1(CCN(c3ncc(Sc4ccnc(N)n4)nc3CO)CC1)C2 [Compound 116]
7.62	8.70		COCC#Cc1ccc2c(c1)[C@@H](N)C1(CCN(c3nc(C)c(Sc4ccnc(N)n4)c4nccn34)CC1)C2 [Compound 117]
6.16	6.88		CNC(=O)C#Cc1ccc2c(c1)[C@@H](N)C1(CCN(c3ncc(Sc4cccnc4C(F)(F)F)nn3)CC1)C2 [Compound 246]
6.58	7.96		C#Cc1ccc2c(c1)[C@@H](N)C1(CCN(c3cc(=O)n(-c4ccc(F)c(Cl)c4)c(C)n3)CC1)C2 [Compound 45]
7.11	8.52		C#Cc1ccc2c(c1)[C@@H](N)C1(CCN(c3cc(=O)n(-c4cccc(F)c4Cl)c(C)n3)CC1)C2 [Compound 61]
6.60	7.77		CCNC(=O)C#Cc1ccc2c(c1)[C@@H](N)C1(CCN(c3cnc(Sc4ccnc(N)c4Cl)c(C#N)n3)CC1)C2 [Compound 272]
8.15	9.22		NC(=O)C#Cc1ccc2c(c1)[C@@H](N)C1(CCN(c3ncc(Sc4ccnc(N)n4)nc3CO)CC1)C2 [Compound 122]
6.56	7.77		C#Cc1ccc2c(c1)[C@@H](N)C1(CCN(c3cc(=O)n(-c4c(F)cccc4F)c(C)n3)CC1)C2 [Compound 35]
7.02	7.92		COCCSc1ccc2c(c1)[C@@H](N)C1(CCN(c3cc(=O)n(-c4ccc(F)c(OC)c4F)c(C)n3)CC1)C2 [Compound 101]
	6.50	< 6.00	CC#Cc1ccc2c(c1)[C@@H](N)C1(CCN(c3cc(=O)n(-c4ccc(F)c(Cl)c4Cl)c(C)n3)CC1)C2 (atropisomer, axis not shown) [Compound 220]
6.53	7.68		C#Cc1ccc2c(c1)[C@@H](N)C1(CCN(c3cc(=O)n(-c4cccc5[nH]ncc45)c(C)n3)CC1)C2 [Compound 39]
	6.60	6.02	C#Cc1ccc2c(c1)[C@@H](N)C1(CCN(c3cc(=O)n(-c4cccc(OC)c4Cl)c(C)n3)CC1)C2 (atropisomer, axis not shown) [Compound 110]
6.93	8.22		C#Cc1ccc2c(c1)[C@@H](N)C1(CCN(c3cc(=O)n(-c4cccc(OC)c4)c(C)n3)CC1)C2 [Compound 43]
6.94	7.96		C#Cc1ccc2c(c1)[C@@H](N)C1(CCN(c3cc(=O)n(-c4cccc(Cl)c4Cl)c(C)n3)CC1)O2 [Compound 47]
6.41	7.35		COCC#Cc1ccc2c(c1)[C@@H](N)C1(CCN(c3ncc(-c4cn(C)c5ncccc45)c4nccn34)CC1)C2 [Compound 120]
8.05	9.30		Nc1nccc(Sc2cnc(N3CCC4(CC3)Cc3ccc(C#CC(=O)N5CCC5)cc3[C@H]4N)cn2)c1Cl [Compound 303]

pIC50 ([1]; Homo sapiens, MIA PaCa-2, 2 h)	pIC50 [2]	pIC50 ([1]; 2 hours)	SMILES
	8.70	7.82	C#Cc1ccc2c(c1)[C@@H](N)C1(CCN(c3cc(=O)n(-c4cccc(OC)c4Cl)c(C)n3)CC1)C2 (atropisomer, axis not shown) [Compound 111]
7.06	8.10		C#Cc1ccc2c(c1)[C@@H](N)C1(CCN(c3cc(=O)n(-c4ccc(F)c(F)c4)c(C)n3)CC1)C2 [Compound 15]
6.02	7.07		C#Cc1ccc2c(c1)[C@@H](N)C1(CCN(c3ncc(-c4cn(C)c5ncccc45)c(=O)n3C)CC1)C2 [Compound 285]
	7.55	6.28	C#Cc1ccc2c(c1)[C@@H](N)C1(CCN(c3cc(=O)n(-c4ccccc4Cl)c(C)n3)CC1)C2 (single isomer, unassigned) [Compound 57]
	7.02	6.76	COCC#Cc1ccc2c(c1)[C@@H](N)C1(CCN(c3cc(=O)n(-c4ccc(F)c(Cl)c4Cl)c(C)n3)CC1)C2 (atropisomer, axis not shown) [Compound 125]
5.94	7.01		C#Cc1ccc2c(c1)OC1(CCN(c3cc(=O)n(-c4cccc(Cl)c4Cl)c(C)n3)CC1)[C@@H]2N (atropisomer, axis not shown) [Compound 11]
6.35	7.17		C#Cc1ccc2c(c1)[C@@H](N)C1(CCN(c3ncc(Sc4ccnc(N)n4)c(N)n3)CC1)C2 [Compound 213]
6.85	8.70		Cc1nc(N2CCC3(CC2)Cc2ccc(C#CCN(C)C)cc2[C@H]3N)cc(=O)n1-c1ccc(F)c(Cl)c1Cl [Compound 70]
8.40	8.52		CC#Cc1ccc2c(c1)[C@@H](N)C1(CCN(c3cnc(Sc4ccnc(N)c4Cl)c(N)n3)CC1)C2 [Compound 131]
7.37	8.70		COCC#Cc1ccc2c(c1)[C@@H](N)C1(CCN(c3cc(=O)n(-c4ccc(F)c(OC)c4F)c(C)n3)CC1)C2 [Compound 82]
7.82	9.05		NC(=O)C#Cc1ccc2c(c1)[C@@H](N)C1(CCN(c3ncc(Sc4ccnc(N)c4Cl)c4nccn34)CC1)C2 [Compound 128]
	7.82	6.50	Cc1c(N2CCC3(CC2)Cc2ccc(C#CCN(C)C)cc2[C@H]3N)nc(C)n(-c2cccc(Cl)c2Cl)c1=O (atropisomer, axis not shown) [Compound 50]
6.69	8.05		CNC(=O)C#Cc1ccc2c(c1)[C@@H](N)C1(CCN(c3ncc(N4CCCc5ncccc54)nc3C)CC1)C2 [Compound 263]
	7.24	6.73	CC#Cc1ccc2c(c1)[C@@H](N)C1(CCN(c3cc(=O)n(-c4ccc(F)c(OC)c4Cl)c(C)n3)CC1)C2 (atropisomer, axis not shown) [Compound 208]
8.40	8.70		Nc1nccc(Sc2cnc(N3CCC4(CC3)Cc3ccc(C#CCO)cc3[C@H]4N)n3ccnc23)c1Cl [Compound 76]
6.75	8.40		Cc1nc(N2CCC3(CC2)Cc2ccc(Nc4cnn(C)c4)cc2[C@H]3N)cc(=O)n1-c1cccc(Cl)c1Cl [Compound 63]
	7.62	6.57	C#Cc1ccc2c(c1)[C@@H](N)C1(CCN(c3cc(=O)n(-c4cccc(Cl)c4F)c(C)n3)CC1)C2 (atropisomer, axis not shown) [Compound 66]
	8.96	7.28	C#Cc1ccc2c(c1)[C@@H](N)C1(CCN(c3cc(=O)n(-c4cccc(OC)c4Cl)c(C)n3)CC1)C2 [Compound 90]
	7.28	6.55	C#Cc1ccc2c(c1)[C@@H](N)C1(CCN(c3cc(=O)n(-c4ccc(F)c(F)c4Cl)c(C)n3)CC1)C2 (atropisomer, axis not shown) [Compound 114]
< 6.00	7.17		Cc1nc(N2CCC3(CC2)Cc2ccc(C#CCN(C)C)cc2[C@H]3N)cc(=O)n1-c1cc(Cl)ccc1Cl [Compound 84]
6.83	7.54		C#Cc1ccc2c(c1)[C@@H](N)C1(CCN(c3cc(=O)n(-c4ccccc4SC)c(C)n3)CC1)C2 [Compound 133]
	9.00	7.68	Cc1c(N2CCC3(CC2)Cc2ccc(C#CCN(C)C)cc2[C@H]3N)nc(C)n(-c2cccc(Cl)c2Cl)c1=O (atropisomer, axis not shown) [Compound 51]
6.88	8.22		C#Cc1ccc2c(c1)[C@@H](N)C1(CCN(c3cc(=O)n(-c4ccccc4Cl)c(C)n3)CC1)C2 [Compound 42, (S)-6-(1-amino-6-ethynyl-1,3-dihydrospiro[indene-2,4′-piperidin]-1′-yl)-3-(2-chlorophenyl)-2-methylpyrimidin-4(3H)-one]

SMILES	pIC50 ([1]; Homo sapiens, MIA PaCa-2, 2 h)	pIC50 [2]	pIC50 ([1]; 2 hours)
C#Cc1ccc2c(c1)[C@@H](N)C1(CCN(c3cc(=O)n(-c4ccc(C#N)c(Cl)c4Cl)c(C)n3)CC1)C2 (atropisomer, axis not shown) [Compound 192]		< 6.00	< 6.00
C#Cc1ccc2c(c1)[C@@H](N)C1(CCN(c3cc(=O)n(-c4cccc(Cl)c4Cl)c(C)n3)CC1)C2 [Compound 64]	6.05	6.74	
